# Experimental data: ChEMBL document CHEMBL6087479, “Discovery of a Potent and Selective GSPT1 Molecular Glue Degrader for the Treatment of Castration-Resistant Prostate Cancer” (J Med Chem, 2025)
# Calls of active or inactive are those of the source. No cut-off for these calls is given here.
# How the values were obtained:
# [1] = Toxicity in wild-type NOD-SCID mouse assessed as tolerability administered intraperitoneally once daily for 21 days; details: in vivo, ip, 504 h, time 21 day
# LNCaP C4-2B = assay: cells; details: Homo sapiens, 96 h
# Description: Antiproliferative activity against human LNCaP C4-2B cells assessed as inhibition of cell proliferation incubated for 96 hrs by CellTiter-Glo assay
# CWR22R [2] = assay: Downregulation of CDK2 expression in human 22Rv1 cells incubated for 12 hrs by qRT-PCR analysis; format: functional, cell-based
# CWR22R [3] = assay: Reduction of GSPT1 in siCRBN transfected human 22Rv1 cells at 500 nM incubated for 6 hrs by Western blotting analysis; format: functional, cell-based
# CWR22R [4] = assay: Antitumor activity against human 22Rv1 cells xenografted in NOD-SCID mouse assessed as tumor growth inhibition at 10 mg/kg, ip administered once daily for 21 days relative to control; format: functional; details: 22Rv1, 504 h, time 21 day, read-out: TGI
# CWR22R [5] = assay: Downregulation of GSPT1 protein level in human 22Rv1 cells incubated for 6 hrs by Immunoblotting analysis; format: functional, cell-based; details: dose 12-1000 nM
# CWR22R [6] = assay: Downregulation of BRD2 protein level in human 22Rv1 cells at 500 nM incubated for 6 hrs by mass spectrometry-based label-free quantitative proteomics analysis; format: functional, cell-based
# CWR22R [7] = assay: Downregulation of PSA mRNA level in human 22Rv1 cells at 500 nM incubated for 12 hrs by qRT-PCR analysis; format: functional, cell-based
# [8] = Downregulation of GSPT1 protein level in human 22Rv1 cells at 12 to 1000 nM incubated for 6 hrs by Immunoblotting analysis; details: 22Rv1, 6 h
# CWR22R [9] = assay: cells; details: Homo sapiens, 22Rv1, 96 h
# Description: Antiproliferative activity against human 22Rv1 cells assessed as inhibition of cell proliferation incubated for 96 hrs by CellTiter-Glo assay
# CWR22R [10] = assay: Downregulation of BCL-XL level in human 22Rv1 cells at 12 to 1000 nM incubated for 12 hrs by Immunoblotting analysis; format: functional, cell-based; details: dose 12-1000 nM
# CWR22R [11] = assay: Downregulation of BCL2 expression in human 22Rv1 cells incubated for 12 hrs by qRT-PCR analysis; format: functional, cell-based
# CWR22R [12] = assay: Inhibition of colony formation in human 22Rv1 cells at 6.25 to 25 nM incubated for 14 days by crystal violet staining based assay; format: functional, cell-based; details: dose 6.25-25 nM, time 14.0 day
# CWR22R [13] = assay: Downregulation of AR-V7 protein level in human 22Rv1 cells at 12 to 1000 nM incubated for 12 hrs by Immunoblotting analysis; format: functional, cell-based; details: dose 12-1000 nM
# [14] = biological target: Eukaryotic peptide chain release factor GTP-binding subunit ERF3A (Homo sapiens) (UniProt P15170); details: dose 200.0 µM, time 45.0 min
# Sequence of Eukaryotic peptide chain release factor GTP-binding subunit ERF3A (Homo sapiens) (P15170 whole entry): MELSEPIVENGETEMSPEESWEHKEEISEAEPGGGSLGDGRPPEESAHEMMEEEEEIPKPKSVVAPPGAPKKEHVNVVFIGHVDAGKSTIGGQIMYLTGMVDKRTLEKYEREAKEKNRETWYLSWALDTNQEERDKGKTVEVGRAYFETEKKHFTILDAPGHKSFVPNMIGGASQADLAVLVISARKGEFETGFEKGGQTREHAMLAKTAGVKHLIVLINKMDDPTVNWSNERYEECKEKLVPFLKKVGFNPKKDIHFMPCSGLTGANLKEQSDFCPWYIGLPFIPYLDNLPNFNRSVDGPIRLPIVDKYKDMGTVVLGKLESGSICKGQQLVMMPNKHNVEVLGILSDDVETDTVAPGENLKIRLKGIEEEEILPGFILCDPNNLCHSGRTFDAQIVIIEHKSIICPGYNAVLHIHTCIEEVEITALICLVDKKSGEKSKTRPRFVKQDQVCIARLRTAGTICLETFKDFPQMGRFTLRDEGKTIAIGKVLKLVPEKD
# LNCaP = assay: cells; details: Homo sapiens, 96 h
# Description: Antiproliferative activity against human LNCaP cells assessed as inhibition of cell proliferation incubated for 96 hrs by CellTiter-Glo assay
# CWR22R [15] = assay: Downregulation of c-MYC protein level in human 22Rv1 cells at 12 to 1000 nM incubated for 12 hrs by Immunoblotting analysis; format: functional, cell-based; details: dose 12-1000 nM
# CWR22R [16] = assay: Downregulation of PSA protein level in human 22Rv1 cells at 12 to 1000 nM incubated for 12 hrs by Immunoblotting analysis; format: functional, cell-based; details: dose 12-1000 nM
# CWR22R [17] = assay: Downregulation of BRD4 protein level in human 22Rv1 cells at 500 nM incubated for 6 hrs by mass spectrometry-based label-free quantitative proteomics analysis; format: functional, cell-based
# [18] = biological target: Eukaryotic peptide chain release factor GTP-binding subunit ERF3A (Homo sapiens) (UniProt P15170); assay: Binding affinity to GSPT1 (unknown origin) by BLI assay
# CWR22R [19] = assay: Downregulation of AR-FL protein level in human 22Rv1 cells at 12 to 1000 nM incubated for 12 hrs by Immunoblotting analysis; format: functional, cell-based; details: dose 12-1000 nM
# CWR22R [20] = assay: Downregulation of BCL2 level in human 22Rv1 cells at 12 to 1000 nM incubated for 12 hrs by Immunoblotting analysis; format: functional, cell-based; details: dose 12-1000 nM
# CWR22R [21] = assay: Downregulation of GSPT1 protein level in human 22Rv1 cells at 300 nM by Immunoblotting analysis; format: functional, cell-based; details: time 1-6 hrs
# CWR22R [22] = assay: Downregulation of c-MYC mRNA level in human 22Rv1 cells at 500 nM incubated for 12 hrs by qRT-PCR analysis; format: functional, cell-based
# [23] = biological target: Protein cereblon/Eukaryotic peptide chain release factor GTP-binding subunit ERF3A (Homo sapiens) (UniProt Q96SW2+P15170); assay: Protac activity at CRBN/GSPT1 in human 22Rv1 cells assessed as GSPT1 degradation at 12 to 1000 nM incubated for 6 hrs by Western blotting analysis; format: cell-based; details: dose 12-1000 nM
# Sequence of Protein cereblon/Eukaryotic peptide chain release factor GTP-binding subunit ERF3A (Homo sapiens) (P15170 whole entry, looked up): as the sequence (P15170 whole entry) above
# Sequence of Protein cereblon/Eukaryotic peptide chain release factor GTP-binding subunit ERF3A (Homo sapiens) (Q96SW2 whole entry, looked up): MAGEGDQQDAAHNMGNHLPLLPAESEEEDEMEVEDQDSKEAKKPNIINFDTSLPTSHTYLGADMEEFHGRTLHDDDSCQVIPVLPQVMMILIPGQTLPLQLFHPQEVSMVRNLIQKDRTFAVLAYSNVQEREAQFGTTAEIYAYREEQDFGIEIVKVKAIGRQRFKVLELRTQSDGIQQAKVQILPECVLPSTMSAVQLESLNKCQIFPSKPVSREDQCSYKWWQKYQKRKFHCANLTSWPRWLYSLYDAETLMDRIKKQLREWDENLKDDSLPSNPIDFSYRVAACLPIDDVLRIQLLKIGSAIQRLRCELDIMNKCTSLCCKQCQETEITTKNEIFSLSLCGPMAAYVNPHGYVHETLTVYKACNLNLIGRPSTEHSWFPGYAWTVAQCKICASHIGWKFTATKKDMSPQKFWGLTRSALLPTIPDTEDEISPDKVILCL
# CWR22R [24] = assay: Downregulation of E2F3 expression in human 22Rv1 cells incubated for 12 hrs by qRT-PCR analysis; format: functional, cell-based
# [25] = biological target: Protein cereblon/Bromodomain-containing protein 4 (Homo sapiens) (UniProt O60885+Q96SW2); assay: Molecular glue degradation activity at CRBN/BRD4 in human 22Rv1 cells at 12 to 1000 nM incubated for 6 hrs by Immunoblotting analysis; format: cell-based; details: dose 12-1000 nM
# Sequence of Protein cereblon/Bromodomain-containing protein 4 (Homo sapiens) (Q96SW2 whole entry, looked up, other chains not shown): as the sequence (Q96SW2 whole entry, looked up) above
# CWR22R [26] = assay: Downregulation of EGFR expression in human 22Rv1 cells incubated for 12 hrs by qRT-PCR analysis; format: functional, cell-based
# [27] = Binding affinity to […]/DDB1/N-terminal H6-Avi-tagged CRBN TBD (unknown origin) expressed in BL21 (DE3) cells assessed as dissociation constant by BLI assay; parameters: species or system Homo sapiens
# CWR22R [28] = assay: Downregulation of AR-FL mRNA level in human 22Rv1 cells at 500 nM incubated for 12 hrs by qRT-PCR analysis; format: functional, cell-based
# CWR22R [29] = assay: Downregulation of TMPRSS2 expression in human 22Rv1 cells incubated for 12 hrs by qRT-PCR analysis; format: functional, cell-based
# CWR22R [30] = assay: Downregulation of GSPT1 mRNA level in human 22Rv1 cells at 100 to 300 nM incubated for 12 hrs by qRT-PCR analysis; format: functional, cell-based; details: dose 100-300 nM
# CWR22R [31] = assay: Downregulation of MCL-1 level in human 22Rv1 cells at 12 to 1000 nM incubated for 12 hrs by Immunoblotting analysis; format: functional, cell-based; details: dose 12-1000 nM
# CWR22R [32] = assay: Antiproliferative activity against human 22Rv1 cells assessed as inhibition of cell proliferation by CellTiter-Glo assay
# CWR22R [33] = assay: Downregulation of GSPT1 protein level in human 22Rv1 cells at 500 nM incubated for 6 hrs by mass spectrometry-based label-free quantitative proteomics analysis; format: functional, cell-based
# CWR22R [34] = assay: Antiproliferative activity against siCRBN knockdown human 22Rv1 cells assessed as inhibition of cell growth by Cell-titer Glo luminescent assay; format: functional, cell-based
# CWR22R [35] = assay: Downregulation of HSP90B1 expression in human 22Rv1 cells incubated for 12 hrs by qRT-PCR analysis; format: functional, cell-based
# CWR22R [36] = assay: Downregulation of AR-V7 mRNA level in human 22Rv1 cells at 500 nM incubated for 12 hrs by qRT-PCR analysis; format: functional, cell-based
# [37] = biological target: Bromodomain-containing protein 4 (Homo sapiens, UniProt O60885); assay: Binding affinity to BRD4 BD1 (unknown origin) assessed as dissociation constant by BLI assay
# CWR22R [38] = assay: Antitumor activity against human 22Rv1 cells xenografted in NOD-SCID mouse assessed as tumor growth inhibition at 20 mg/kg, ip administered once daily for 21 days relative to control; format: functional; details: 22Rv1, 504 h, time 21 day, read-out: TGI
smiles,measurement,setting,value
COc1ccc(Br)cc1S(=O)(=O)Nc1cc2c(C)noc2cc1OCC(=O)NCCCCCNc1cccc2c1C(=O)N(C1CCC(=O)NC1=O)C2=O (stereo not given),Activity,[1],Non-toxic
same,IC50,LNCaP C4-2B,374 nM
same,Activity,CWR22R [2],Active
same,Activity,CWR22R [3],inactive
same,inhibition in vivo at 10 mg/kg,CWR22R [4],44%
same,Activity,CWR22R [5],Dose-dependent-effect
same,Activity,CWR22R [6],inactive
same,Activity,CWR22R [7],Active
same,DC50,[8],19 nM
same,IC50,CWR22R [9],7 nM
same,Activity,CWR22R [10],Active
same,Activity,CWR22R [11],Active
same,inhibition,CWR22R [12],Active
same,Activity,CWR22R [13],Active
same,deltaTm,[14],inactive
same,IC50,LNCaP,34 nM
same,Activity,CWR22R [15],Active
same,Activity,CWR22R [16],Active
same,Activity,CWR22R [17],inactive
same,Activity,[18],inactive
same,Activity,CWR22R [19],Active
same,Activity,CWR22R [20],Active
same,Activity,CWR22R [21],Time-dependent-effect
same,Activity,CWR22R [22],Active
same,Activity,[23],Active
same,Activity,CWR22R [24],Active
same,Activity,[25],inactive
same,Activity,CWR22R [26],Active
same,Kd,[27],930 nM
same,Activity,CWR22R [28],Active
same,Activity,CWR22R [29],Active
same,Activity,CWR22R [30],inactive
same,Activity,CWR22R [31],Active
same,IC50,CWR22R [32],7 nM
same,Activity,CWR22R [33],Active
same,Activity,CWR22R [34],inactive
same,Activity,CWR22R [35],Active
same,Activity,CWR22R [36],Active
same,Kd,[37],38000 nM
same,inhibition in vivo at 20 mg/kg,CWR22R [38],55%
